From paper PMC9578445, “Association of respiratory failure with inhibition of NaV1.6 in the phrenic nerve” (Channels, 2022)
Read-outs that look alike come from different tables or passages of the source.

How the values were obtained:
[1] = target: T1, Human NaV1.5 (Homo sapiens, UniProt Q14524); assay: PatchXpress automated patch clamp, depolarized-state protocol; type: cell-based; conditions: HEK 293 cells
T1 construct: expressed in transfected cells
Description: (§1) Sodium currents were recorded from recombinant Human Embryonic Kidney 293 cell lines stably overexpressing the respective sodium channel type (NaV1.2, 1.5, 1.4, 1.6, 1.7). Recording solutions were comprised of the following (in mM): Internal solution: 30 CsCl, 5 HEPES, 10 EGTA, 120 CsF, 5 NaF, 2 MgCl2, pH = 7.3 with CsOH; External solution 1: 40 NaCl, 120 NMDG, 1 KCl, 0.5 MgCl2, 5 HEPES, 2.7 CaCl2, pH to 7.3 with NaOH, used for NaV1.5 recordings; External solution 2: 150 NaCl, 5 KCl, 2 CaCl2, 1 MgCl2, 10 HEPES, 12 Dextrose, pH 7.3 with NaOH, used for NaV1.7, 1.6, 1.4, and 1.2 recordings.
(§2) Whole-cell currents were recorded from cells stably expressing NaV channels using the PatchXpress 7000A automated patch clamp platform (Molecular Devices, LLC; Sunnyvale, CA). A portable air-conditioning unit was installed on the PatchXpress instruments to maintain the temperature of the headstage at 21°C. Cells were voltage clamped at −60 mV for cell detection and sealing. At the start of each recording, a voltage curve and an inactivation curve was run for each cell to determine the voltage at which 50% of the channels reside in the inactivated state (V0.5 inact). The voltage curve was used to determine if the cell was adequately clamped; cells with currents larger than 10nA or with space clamp issues were not used further.
NaV1.5: Compound potency was measured in a depolarized-state protocol where the holding potential for each cell was set to V0.5inact – 20 mV. The pulse protocol consisted of an 8 sec prepulse to V0.5inact + 7 mV, followed by a 2 ms hyperpolarization to −120 mV and a 10 ms test pulse to −10 mV. First, vehicle (0.3% DMSO) was added to establish a baseline measurement. Once baseline was established, a test compound was added. Cells were exposed to compound for 5 minutes at V0.5inact – 20 mV. Compound washout was performed to measure the recovery of the sodium currents from inhibition.
(§3) Recordings were included for analysis when current amplitude reached steady-state in vehicle, compound inhibition was concentration-dependent and currents recovered during wash-out periods. Raw data from PatchXpress experiments were retrieved from the database and analyzed using the DataXpress 2 software (Molecular Devices).
(§4) At least 3 concentrations (3–9 replicates per concentration) were tested and at least one concentration had to cause 20–80% current inhibition.

[2] = tested on: anesthetized male CD rats; assay: Rat Cardiovascular/Respiratory (CV/R) assay; type: in vivo; set-up: ∆ QRS Interval: unit not given here
Description: Male CD Rats were anesthetized with ketamine:xylazine (85 mg/kg:5 mg/kg, im, to effect). The left femoral artery and vein were cannulated for the measurement of blood pressure and the administration of test agent, respectively. The right femoral vein was cannulated for maintenance anesthetic infusion (ketamine:xylazine ~35 mg/kg/hr:1.5 mg/kg/hr, iv, to effect). Needle electrodes were placed subcutaneously at the right axillary and left inguinal areas to record lead II ECGs. When ECG intervals were required to determine effect on cardiac conduction a pacing/recording electrode catheter was advanced through the right jugular vein to pace the heart. ECG intervals were then measured at a fixed cardiac rate of 400 beats/minute to remove any variability of intrinsic heart rate on these parameters.
To determine the test agent-dependent effect on respiratory rate, a tracheotomy was also performed using a short length of polyethylene tubing containing a thermistor (AD Instruments). The change in temperature detected by the thermistor was used to calculate respiratory rate.
(§5) For in vivo CVR and phrenic nerve activity studies, all raw signals were amplified via general purposed biological amplifier (filter settings DC – 3-5 KhZ) then digitized, calibrated and collected at a minimum of 500 Hz (1000 Hz for ECG and 2000 Hz for cardiac electrograms, and 10 KHz for phrenic nerve activity) using Notocord-HEM data acquisition and analysis software. The raw signal was filtered following acquisition with a bandpass filter set to 200–800 Hz). Vehicle (100% dimethylformamdide, DMF) or compound formulated in the vehicle was administered as a 30-minute IV infusion at 0.0167 μL/g body weight/min. Doses were selected to achieve unbound plasma concentrations in range of measured Nav1.6 IC50 values when infused at 0.0167uL/g body weight/min based on measured rat clearance, plasma protein binding and Nav1.6 IC50. Exposure in rats was determined in separate pharmacokinetics experiments where compounds were administered via IV dosing.

[3] = Plasma exposure in phrenic nerve activity assay; type: in vivo; conditions: rat; for concentration at 30 min / concentration at 15 min: CD, plasma, intravenous
Text: as §5

[4] = target: Nav1.6 (Homo sapiens, UniProt Q9UQD0); assay: PatchXpress automated patch clamp, hyperpolarized-state protocol; type: cell-based; set-up: expressed in transfected cells; conditions: for IC50: HEK 293 cells, hyperpolarized protocol
Description: as §1, §2
NaV1.7, NaV1.6, NaV1.4: Compound potency was measured in a hyperpolarized-state protocol where the holding potential for each cell was set to V0.5inact – 20 mV. A pulse train consisting of 7 consecutive double pulses, 8 second hypepolarizing prepulse to −120 mV followed by a test pulse to −10 mV was applied at a frequency of 0.1 Hz. First, vehicle (0.3% DMSO) was added to establish a baseline measurement. Once baseline was established, test compounds were added. Cells were exposed to compound for 5 minutes at 20 mV negative to V0.5inact then exposed to the same hyperpolarized voltage protocol. (no pulsing during compound incubation). A washout was performed to measure recovery of the sodium currents from inhibition.
as §3, §4

[5] = rat CV/R assay, IV infusion, doses tested
[6] = rat, IV infusion, 7 mg/kg, 15 min
[7] = rat, IV infusion, 7 mg/kg, 30 min
[8] = rat, IV infusion, 14 mg/kg, 15 min
[9] = rat, IV infusion, 14 mg/kg, 30 min
[10] = rat, IV infusion, 30 mg/kg, 15 min
[11] = rat, IV infusion, 30 mg/kg, 30 min
[12] = 30 mg/kg, read-out: Total [plasma]
[13] = 30 mg/kg, read-out: Unbound [plasma]
[14] = rat, IV infusion, 10 mg/kg, 15 min
[15] = rat, IV infusion, 10 mg/kg, 30 min
[16] = rat, IV infusion, 60 mg/kg, 15 min
[17] = 60 mg/kg, read-out: Total [plasma]
[18] = 60 mg/kg, read-out: Unbound [plasma]
[19] = rat, IV infusion, 1 mg/kg, 15 min
[20] = rat, IV infusion, 1 mg/kg, 30 min

T1 sequence (Q14524 whole entry): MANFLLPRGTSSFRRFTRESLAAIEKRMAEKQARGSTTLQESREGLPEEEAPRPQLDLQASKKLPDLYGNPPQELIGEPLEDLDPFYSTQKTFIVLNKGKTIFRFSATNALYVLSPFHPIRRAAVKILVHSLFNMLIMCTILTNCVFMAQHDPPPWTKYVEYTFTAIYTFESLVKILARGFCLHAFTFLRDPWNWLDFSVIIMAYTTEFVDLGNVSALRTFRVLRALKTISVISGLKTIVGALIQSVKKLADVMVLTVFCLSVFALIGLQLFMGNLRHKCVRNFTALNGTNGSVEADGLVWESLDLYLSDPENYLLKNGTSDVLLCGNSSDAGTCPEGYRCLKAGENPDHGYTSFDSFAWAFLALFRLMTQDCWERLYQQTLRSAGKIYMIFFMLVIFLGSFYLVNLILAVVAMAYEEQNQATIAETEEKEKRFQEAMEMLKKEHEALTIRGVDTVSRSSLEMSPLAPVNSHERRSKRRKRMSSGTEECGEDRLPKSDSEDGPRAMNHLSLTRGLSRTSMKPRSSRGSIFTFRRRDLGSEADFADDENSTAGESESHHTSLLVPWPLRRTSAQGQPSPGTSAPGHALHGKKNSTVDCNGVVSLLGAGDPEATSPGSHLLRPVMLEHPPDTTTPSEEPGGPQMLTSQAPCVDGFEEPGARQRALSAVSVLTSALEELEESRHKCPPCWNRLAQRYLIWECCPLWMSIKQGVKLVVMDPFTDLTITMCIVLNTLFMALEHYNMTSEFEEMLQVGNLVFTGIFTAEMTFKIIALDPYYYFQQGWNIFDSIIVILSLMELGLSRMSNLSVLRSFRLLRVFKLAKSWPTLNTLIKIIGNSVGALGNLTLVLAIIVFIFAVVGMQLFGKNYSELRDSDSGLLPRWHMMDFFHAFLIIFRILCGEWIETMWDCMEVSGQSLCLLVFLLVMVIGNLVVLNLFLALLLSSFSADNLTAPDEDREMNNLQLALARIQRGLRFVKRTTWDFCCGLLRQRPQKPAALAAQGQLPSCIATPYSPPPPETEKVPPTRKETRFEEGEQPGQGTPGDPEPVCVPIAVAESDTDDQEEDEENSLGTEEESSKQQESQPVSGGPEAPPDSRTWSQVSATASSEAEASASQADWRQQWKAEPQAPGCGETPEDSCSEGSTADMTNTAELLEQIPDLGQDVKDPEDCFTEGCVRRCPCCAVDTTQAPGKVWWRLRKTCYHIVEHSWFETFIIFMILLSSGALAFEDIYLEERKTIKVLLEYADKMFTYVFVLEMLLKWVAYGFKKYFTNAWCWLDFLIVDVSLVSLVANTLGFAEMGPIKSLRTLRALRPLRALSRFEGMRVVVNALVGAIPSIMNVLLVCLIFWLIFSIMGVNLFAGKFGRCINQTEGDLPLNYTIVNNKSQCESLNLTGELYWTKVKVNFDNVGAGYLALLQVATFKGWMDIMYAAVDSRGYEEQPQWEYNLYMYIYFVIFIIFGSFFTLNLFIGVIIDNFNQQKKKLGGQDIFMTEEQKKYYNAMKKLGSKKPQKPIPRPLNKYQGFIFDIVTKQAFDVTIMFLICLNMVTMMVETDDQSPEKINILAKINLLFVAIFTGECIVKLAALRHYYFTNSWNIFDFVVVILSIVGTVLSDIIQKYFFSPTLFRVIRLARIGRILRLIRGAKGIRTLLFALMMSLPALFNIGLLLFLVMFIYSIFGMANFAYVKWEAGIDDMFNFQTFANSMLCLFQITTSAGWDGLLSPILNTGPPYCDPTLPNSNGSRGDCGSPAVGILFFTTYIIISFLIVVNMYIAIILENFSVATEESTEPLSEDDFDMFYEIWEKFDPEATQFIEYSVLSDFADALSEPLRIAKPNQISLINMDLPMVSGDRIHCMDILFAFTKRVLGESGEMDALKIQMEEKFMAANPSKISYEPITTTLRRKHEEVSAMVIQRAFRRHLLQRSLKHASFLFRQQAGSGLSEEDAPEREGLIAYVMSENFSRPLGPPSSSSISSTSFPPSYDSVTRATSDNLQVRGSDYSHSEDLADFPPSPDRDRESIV
Sequence of Nav1.6 (Q9UQD0 whole entry): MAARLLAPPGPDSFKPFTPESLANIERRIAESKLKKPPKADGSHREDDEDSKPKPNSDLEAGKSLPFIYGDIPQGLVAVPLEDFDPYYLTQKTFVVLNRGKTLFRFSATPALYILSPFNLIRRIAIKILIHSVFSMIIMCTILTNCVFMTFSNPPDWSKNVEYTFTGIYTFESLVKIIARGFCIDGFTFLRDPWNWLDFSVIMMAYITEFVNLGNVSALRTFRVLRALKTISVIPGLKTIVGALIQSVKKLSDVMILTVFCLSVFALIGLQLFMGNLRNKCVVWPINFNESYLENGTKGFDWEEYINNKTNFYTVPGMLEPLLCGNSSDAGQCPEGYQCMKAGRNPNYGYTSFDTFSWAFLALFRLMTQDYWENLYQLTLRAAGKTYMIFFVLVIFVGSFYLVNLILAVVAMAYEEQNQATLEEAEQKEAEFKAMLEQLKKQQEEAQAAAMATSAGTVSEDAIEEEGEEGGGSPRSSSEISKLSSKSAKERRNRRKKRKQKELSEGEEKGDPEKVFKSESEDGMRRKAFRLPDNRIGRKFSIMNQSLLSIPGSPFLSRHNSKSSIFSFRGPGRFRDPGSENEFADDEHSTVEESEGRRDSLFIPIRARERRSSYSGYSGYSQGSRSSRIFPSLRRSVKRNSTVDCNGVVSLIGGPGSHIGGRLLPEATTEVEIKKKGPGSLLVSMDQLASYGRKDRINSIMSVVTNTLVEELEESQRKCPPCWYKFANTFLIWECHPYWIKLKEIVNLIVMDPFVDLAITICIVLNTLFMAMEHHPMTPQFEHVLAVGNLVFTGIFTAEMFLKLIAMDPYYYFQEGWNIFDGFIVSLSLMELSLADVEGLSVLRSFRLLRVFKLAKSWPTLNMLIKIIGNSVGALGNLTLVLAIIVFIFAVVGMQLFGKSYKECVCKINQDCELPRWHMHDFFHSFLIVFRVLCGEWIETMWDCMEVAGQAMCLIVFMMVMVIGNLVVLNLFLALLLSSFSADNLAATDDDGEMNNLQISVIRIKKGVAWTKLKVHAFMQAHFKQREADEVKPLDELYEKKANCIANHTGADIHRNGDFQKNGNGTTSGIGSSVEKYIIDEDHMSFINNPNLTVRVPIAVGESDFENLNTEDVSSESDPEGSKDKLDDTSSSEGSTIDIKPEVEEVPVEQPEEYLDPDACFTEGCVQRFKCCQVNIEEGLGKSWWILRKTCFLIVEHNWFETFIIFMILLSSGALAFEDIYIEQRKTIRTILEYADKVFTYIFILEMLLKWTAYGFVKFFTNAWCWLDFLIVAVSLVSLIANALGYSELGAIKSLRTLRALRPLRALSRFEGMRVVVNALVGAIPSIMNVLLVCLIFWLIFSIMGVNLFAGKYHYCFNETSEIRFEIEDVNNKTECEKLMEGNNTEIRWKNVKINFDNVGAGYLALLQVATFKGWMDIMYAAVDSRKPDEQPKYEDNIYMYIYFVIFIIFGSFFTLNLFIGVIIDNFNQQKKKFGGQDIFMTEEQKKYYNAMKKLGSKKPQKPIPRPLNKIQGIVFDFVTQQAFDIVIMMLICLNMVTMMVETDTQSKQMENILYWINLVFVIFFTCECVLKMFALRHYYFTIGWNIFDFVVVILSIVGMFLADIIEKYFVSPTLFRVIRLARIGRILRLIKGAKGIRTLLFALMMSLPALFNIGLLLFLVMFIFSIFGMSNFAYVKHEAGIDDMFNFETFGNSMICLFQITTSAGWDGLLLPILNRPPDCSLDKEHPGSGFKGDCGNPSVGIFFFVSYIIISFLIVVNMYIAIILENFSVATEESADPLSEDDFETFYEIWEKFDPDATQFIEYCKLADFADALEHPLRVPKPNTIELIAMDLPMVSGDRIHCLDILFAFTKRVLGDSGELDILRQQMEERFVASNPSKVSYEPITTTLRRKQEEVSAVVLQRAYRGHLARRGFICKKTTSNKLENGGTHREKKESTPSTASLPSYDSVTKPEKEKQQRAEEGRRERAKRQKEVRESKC

SMILES: O=S(=O)(Nc1nccs1)c1cc(Cl)c(NCCCCNC[C@H]2CCCN2)cc1F [SSCI-1]
- IC50 [1]: > 30 µM
- mortality [2, 5]: No mortality
- effects on cardiovascular and respiratory parameters ([2]; rat CV/R assay, at unbound plasma exposure 16.9 μM): minimal effects
- ∆ Heart Rate [2, 6]: 0.5 ± 2.2 bpm
- ∆ Mean Arterial Pressure [2, 6]: 4.1 ± 0.3 mmHg
- ∆ QRS Interval [2, 6]: 1.4 ± 0.6
- ∆ respiratory rate [2, 6]: 0.8 ± 1.8%
- ∆ Heart Rate [2, 7]: −1.8 ± 3.7 bpm
- ∆ Mean Arterial Pressure [2, 7]: 2.7 ± 0.5 mmHg
- ∆ QRS Interval [2, 7]: 2.5 ± 1.1
- ∆ respiratory rate [2, 7]: 4.5 ± 1.7%
- ∆ Heart Rate [2, 8]: −1.4 ± 1.5 bpm
- ∆ Mean Arterial Pressure [2, 8]: 2.2 ± 1.1 mmHg
- ∆ QRS Interval [2, 8]: 0.4 ± 0.6
- ∆ respiratory rate [2, 8]: 1.9 ± 1.6%
- ∆ Heart Rate [2, 9]: −0.5 ± 2.9 bpm
- ∆ Mean Arterial Pressure [2, 9]: 2.3 ± 2.5 mmHg
- ∆ QRS Interval [2, 9]: 0.4 ± 0.7
- ∆ respiratory rate [2, 9]: 4.0 ± 1.0%
- ∆ Heart Rate [2, 10]: −0.4 ± 1.2 bpm
- ∆ Mean Arterial Pressure [2, 10]: 10.5 ± 1.5 mmHg
- ∆ QRS Interval [2, 10]: 3.7 ± 0.9
- ∆ respiratory rate [2, 10]: −10.1 ± 0.9%
- ∆ Heart Rate [2, 11]: 2.1 ± 1.4 bpm
- ∆ Mean Arterial Pressure [2, 11]: 4.6 ± 1.9 mmHg
- ∆ QRS Interval [2, 11]: 3.9 ± 0.8
- ∆ respiratory rate [2, 11]: −24.8 ± 3.3%
- concentration at 30 min [3, 12]: 236 ± 110 µM
- concentration at 30 min [3, 13]: 15.8 ± 7.37 µM
- IC50 [4]: > 30 µM

SMILES: C[C@H](c1cccc2c1CNCC2)n1c(=O)oc2cc(S(=O)(=O)Nc3ncns3)ccc21 [SSCI-3]
- IC50 [1]: > 30 µM
- mortality ([2]; rat CV/R assay, IV, 10 mg/kg): No mortality
- time of mortality ([2]; rat CV/R assay, IV, 30 mg/kg): 20 to 21 min
- ∆ Heart Rate [2, 14]: 3.0 ± 0.7 bpm
- ∆ Mean Arterial Pressure [2, 14]: 12.9 ± 2.1 mmHg
- ∆ respiratory rate [2, 14]: −8.5 ± 1.8%
- ∆ Heart Rate [2, 15]: 5.0 ± 1.9 bpm
- ∆ Mean Arterial Pressure [2, 15]: 6.8 ± 8.7 mmHg
- ∆ QRS Interval [2, 15]: 0.5 ± 0.2
- ∆ respiratory rate [2, 15]: −3.2 ± 1.8%
- ∆ respiratory rate ([2]; rat, IV infusion, 30 mg/kg, 20–21 min): −100%
- ∆ Heart Rate [2, 10]: 5.6 ± 1.7 bpm
- ∆ Mean Arterial Pressure [2, 10]: 13.8 ± 0.7 mmHg
- ∆ QRS Interval [2, 10]: 0.3 + 0.4
- ∆ respiratory rate [2, 10]: −6.2 ± 5.4%
- concentration at 15 min [3, 12]: 32.1 ± 3.4 µM
- concentration at 15 min [3, 13]: 3.78 ± 0.4 µM
- Total [plasma] ([3]; 30 mg/kg, 22–30 min): 43.549 ± 3.116 µM
- Unbound [plasma] ([3]; 30 mg/kg, 22–30 min): 5.138 ± 0.36 µM
- IC50 [4]: 1.11 µM

SMILES: N#Cc1cc(S(=O)(=O)Nc2cscn2)ccc1Oc1ccc(Cl)cc1-c1ccnn1C1CNC1 [SSCI-5]
- IC50 [1]: > 30 µM
- mortality [2, 5]: mortality
- ∆ Heart Rate [2, 10]: −1.7 ± 1.3 bpm
- ∆ Mean Arterial Pressure [2, 10]: 14.0 ± 2.1 mmHg
- ∆ QRS Interval [2, 10]: 1.5 ± 1.1
- ∆ respiratory rate [2, 10]: −13.0 ± 3.4%
- ∆ Heart Rate [2, 11]: −3.7 ± 2.8 bpm
- ∆ Mean Arterial Pressure [2, 11]: 13.3 ± 5.5 mmHg
- ∆ QRS Interval [2, 11]: 4.6 ± 3.2
- ∆ respiratory rate [2, 11]: −10.2 ± 2.6%
- ∆ respiratory rate ([2]; rat, IV infusion, 60 mg/kg, 21–23 min): −100%
- ∆ Heart Rate [2, 16]: 1.0 bpm
- ∆ Mean Arterial Pressure [2, 16]: 5.2 mmHg
- ∆ QRS Interval [2, 16]: 5.2
- ∆ respiratory rate [2, 16]: −15.6%
- time to respiratory and cardiac collapse ([2]; rat, infusion without ventilatory support): ≤ 30 min
- concentration at 15 min [3, 17]: 82.7 ± 15.2 µM
- concentration at 15 min [3, 18]: 10.6 ± 1.94 µM
- concentration at 30 min [3, 17]: 86.2 ± 42.1 µM
- concentration at 30 min [3, 18]: 11 ± 5.39 µM
- IC50 [4]: 4.61 µM

SMILES: COc1ccc(CCC(c2cccc3c2CNCC3)n2c(=O)oc3cc(S(=O)(=O)Nc4ncns4)c(F)cc32)cc1 (stereo not drawn) [SSCI-6]
- IC50 [1]: > 30 µM
- mortality [2, 5]: mortality
- ∆ respiratory rate ([2]; rat, IV infusion, 1 mg/kg, 20–23 min): −100%
- ∆ Heart Rate [2, 19]: −0.1 ± 0.4 bpm
- ∆ Mean Arterial Pressure [2, 19]: 8.2 ± 7.9 mmHg
- ∆ QRS Interval [2, 19]: 1.0 ± 0.8
- ∆ respiratory rate [2, 19]: −18.3 ± 9.3%
- ∆ Heart Rate [2, 20]: 1.7 bpm
- ∆ Mean Arterial Pressure [2, 20]: 7.5 mmHg
- ∆ QRS Interval [2, 20]: 1.7
- ∆ respiratory rate [2, 20]: −7.8%
- fold more potent at inhibiting NaV1.6 channels [4]: approximately 10 fold
- IC50 [4]: 0.023 µM
